{
  "source": "patent US20250248954A1",
  "about": "“PHARMACEUTICAL COMPOSITION FOR PREVENTING OR TREATING DIABETIC STROKE, CONTAINING RAGE ANTAGONIST AND AGE SCAVENGER” (AJOU UNIVERSITY INDUSTRY-ACADEMIC COOPERATION FOUNDATION, priority 2022, published 2025)",
  "type_in_all_cases": "in vivo, SD rats",
  "key": {"[1]": {"system": "hyperglycemic model subjected to temporary middle cerebral artery occlusion (tMCAO)", "assay": "Hyperglycemic (STZ) rat 30-minute tMCAO cerebral ischemia model: body weight, mNSS test, brain injury (cresyl violet)", "settings": "30 min MCAO, 10 mg/kg i.p. once a day", "experimental": "(§1) Specifically, these were carried out as follows. To produce an experimental animal model, 7-week-old male SD rats were fasted for 16 hours. Thereafter, streptozotocin (STZ) was administered to the rats, and after 3 days, fasting blood glucose levels were measured in the tail vein, and only animals with a blood glucose level of 300 mg/dl or more were used as a hyperglycemic model. A cerebral ischemia model was produced by subjecting the produced hyperglycemic model or a normoglycemic model to temporary middle cerebral artery occlusion (tMCAO). For MCAO, a coated suture was inserted through the right external carotid artery into the internal carotid artery, and inserted approximately 19 mm up to the middle cerebral artery (MCA). 30 minutes or 2 hours after insertion, the coated suture was removed, and a reperfusion model was used as a cerebral ischemia model. […] The normoglycemic group (NG), after 2 hours of MCAO, was divided into a vehicle group and an FPS-ZM1 group and used in the experiment. The hyperglycemic group (HG), after 30 minutes of MCAO, was divided into a vehicle group and an FPS-ZM1 group and used in the experiment. The FPS-ZM1 group in each of the normoglycemic group and the hyperglycemic group was injected intraperitoneally with 10 mg/kg of FPS-ZM1 within 5 minutes after MCAO reperfusion and injected with FPS-ZM1 once a day. After surgery, the mNSS (modified neurological severity score) test shown in FIG. 9 and weight measurement were conducted at a certain time every day to check body weight changes and neurobehavioral deficits of the experimental animals. In addition, rats were sacrificed 3 days after MCAO, and plasma and brain tissue were collected and analyzed.\n(§2) After performing MCAO, body weight measurement and the mNSS test were performed at the same time every day.\n(§3) To evaluate brain injury, the volume of cerebral infarction was determined by staining the entire brain with cresyl violet at 1-mm intervals."}, "[2]": {"system": "normoglycemic model subjected to temporary middle cerebral artery occlusion (tMCAO)", "assay": "Normoglycemic rat 2-hour tMCAO cerebral ischemia model: body weight, brain injury (cresyl violet)", "settings": "2 h MCAO, 10 mg/kg i.p. once a day", "experimental": "as §1, §2, §3"}, "[3]": {"system": "RAGE, AGE, methylglyoxal (MGH1), GFAP", "assay": "Western blot analysis of protein expression in brain tissue, hyperglycemic tMCAO group", "settings": "HG, 30 min MCAO, 10 mg/kg i.p.", "experimental": "as §1, with “analyzed. After all experiments were completed, the protein expression levels of RAGE, AGE, and methylglyoxal (MGH1) in the brain tissue from each experimental group were analyzed by Western blot analysis. For comparison, protein expression in the brain tissue from normal rats (sham) was used as a control.” for “analyzed.”"}, "[4]": {"system": "RAGE, AGE, methylglyoxal (MGH1)", "assay": "Western blot analysis of protein expression in brain tissue, normoglycemic tMCAO group", "settings": "NG, 2 h MCAO, 10 mg/kg i.p.", "experimental": "as §1, with “analyzed. After all experiments were completed, the protein expression levels of RAGE, AGE, and methylglyoxal (MGH1) in the brain tissue from each experimental group were analyzed by Western blot analysis. For comparison, protein expression in the brain tissue from normal rats (sham) was used as a control.” for “analyzed.”"}, "[5]": {"system": "neuronal cell death, astrocytes and microglia, AGE and MGH1 in the cerebral cortex", "assay": "Cresyl violet and immunohistochemical staining of cerebral cortex, hyperglycemic tMCAO group", "settings": "HG, 30 min MCAO; 10 mg/kg i.p.; FIG. 4", "experimental": "Specifically, these were carried out as follows. To produce an experimental animal model, 7-week-old male SD rats were fasted for 16 hours. Thereafter, streptozotocin (STZ) was administered to the rats, and after 3 days, fasting blood glucose levels were measured in the tail vein, and only animals with a blood glucose level of 300 mg/dl or more were used as a hyperglycemic model. A cerebral ischemia model was produced by subjecting the produced hyperglycemic model or a normoglycemic model to temporary middle cerebral artery occlusion (tMCAO). For MCAO, a coated suture was inserted through the right external carotid artery into the internal carotid artery, and inserted approximately 19 mm up to the middle cerebral artery (MCA). 30 minutes or 2 hours after insertion, the coated suture was removed, and a reperfusion model was used as a cerebral ischemia model. Since cerebral infarction was rarely found in normoglycemic animals after 30-minute MCAO, a model subjected to 2 hours of MCAO was used and compared with the hyperglycemic group. The normoglycemic group (NG), after 2 hours of MCAO, was divided into a vehicle group and an FPS-ZM1 group and used in the experiment. The hyperglycemic group (HG), after 30 minutes of MCAO, was divided into a vehicle group and an FPS-ZM1 group and used in the experiment. The FPS-ZM1 group in each of the normoglycemic group and the hyperglycemic group was injected intraperitoneally with 10 mg/kg of FPS-ZM1 within 5 minutes after MCAO reperfusion and injected with FPS-ZM1 once a day. After surgery, the mNSS (modified neurological severity score) test shown in FIG. 9 and weight measurement were conducted at a certain time every day to check body weight changes and neurobehavioral deficits of the experimental animals. In addition, rats were sacrificed 3 days after MCAO, and plasma and brain tissue were collected and analyzed.\nThe degree of neuronal cell death in the cerebral cortex from each experimental group was analyzed using cresyl violet staining. In addition, immunohistochemistry was used to analyze the level of activity of astrocytes and microglia and the expression levels of AGE and MGH1 in the cells."}, "[6]": {"system": "neuronal cell death in the cerebral cortex", "assay": "Cresyl violet staining of cerebral cortex, normoglycemic tMCAO group", "settings": "NG, 2 h MCAO; 10 mg/kg i.p.; vs sham group; FIG. 4", "experimental": "Specifically, these were carried out as follows. To produce an experimental animal model, 7-week-old male SD rats were fasted for 16 hours. Thereafter, streptozotocin (STZ) was administered to the rats, and after 3 days, fasting blood glucose levels were measured in the tail vein, and only animals with a blood glucose level of 300 mg/dl or more were used as a hyperglycemic model. A cerebral ischemia model was produced by subjecting the produced hyperglycemic model or a normoglycemic model to temporary middle cerebral artery occlusion (tMCAO). For MCAO, a coated suture was inserted through the right external carotid artery into the internal carotid artery, and inserted approximately 19 mm up to the middle cerebral artery (MCA). 30 minutes or 2 hours after insertion, the coated suture was removed, and a reperfusion model was used as a cerebral ischemia model. Since cerebral infarction was rarely found in normoglycemic animals after 30-minute MCAO, a model subjected to 2 hours of MCAO was used and compared with the hyperglycemic group. […] In addition, rats were sacrificed 3 days after MCAO, and plasma and brain tissue were collected and analyzed.\nThe degree of neuronal cell death in the cerebral cortex from each experimental group was analyzed using cresyl violet staining. […]"}, "[7]": {"system": "ZO-1, occludin, claudin, Tie-2, VEGF, Ang-1, MMP-2, MMP-9", "assay": "Real-time PCR of vascular-related factors in brain tissue after tMCAO", "settings": "10 mg/kg i.p., FIG. 5", "experimental": "Specifically, these were carried out as follows. To produce an experimental animal model, 7-week-old male SD rats were fasted for 16 hours. Thereafter, streptozotocin (STZ) was administered to the rats, and after 3 days, fasting blood glucose levels were measured in the tail vein, and only animals with a blood glucose level of 300 mg/dl or more were used as a hyperglycemic model. A cerebral ischemia model was produced by subjecting the produced hyperglycemic model or a normoglycemic model to temporary middle cerebral artery occlusion (tMCAO). For MCAO, a coated suture was inserted through the right external carotid artery into the internal carotid artery, and inserted approximately 19 mm up to the middle cerebral artery (MCA). 30 minutes or 2 hours after insertion, the coated suture was removed, and a reperfusion model was used as a cerebral ischemia model. […] The normoglycemic group (NG), after 2 hours of MCAO, was divided into a vehicle group and an FPS-ZM1 group and used in the experiment. The hyperglycemic group (HG), after 30 minutes of MCAO, was divided into a vehicle group and an FPS-ZM1 group and used in the experiment. […] In addition, rats were sacrificed 3 days after MCAO, and plasma and brain tissue were collected and analyzed."}, "[8]": {"system": "experimental animal model of diabetes mellitus (DM) subjected to tMCAO", "assay": "Diabetic (STZ, 34 days) rat 30-minute tMCAO model: body weight, blood glucose, glycated hemoglobin, brain injury by MRI", "settings": "diabetic rats, vs DM-vehicle", "experimental": "(§4) Specifically, these were carried out as follows. To produce an experimental animal model of diabetes mellitus (DM), 7-week-old male SD rats were fasted for 16 hours. Thereafter, streptozotocin (STZ) was administered to the rats, and on day 3, blood glucose levels were measured. The rats were divided into a vehicle group and an aminoguanidine (AG) group, which had similar average blood glucose levels, and were maintained for 34 days. The AG group was orally administered 100 mg/kg of aminoguanidine once a day starting from day 4 after diabetes induction, and was finally administered aminoguanidine within 30 minutes after MCAO. On day 1 after MCAO, the mNSS test shown in FIG. 9 was performed, and then cerebral infarction was checked using an animal MRI system. Next, the rats were sacrificed, and plasma and brain tissue were collected and analyzed. For comparison, protein expression in the brain tissue from normal rats (sham) was used as a control. The impact on diabetes was evaluated by checking changes in body weight and blood glucose levels once a week after diabetes induction and checking final glycated hemoglobin levels after MCAO. To evaluate brain injury, the volume of cerebral infarction was determined using an animal MRI system."}, "MGH1": {"system": "MGH1", "assay": "MGH1 expression in brain tissue of diabetic tMCAO groups by immunohistochemical staining and Western blot", "settings": "diabetic rats, day 1 after MCAO; 100 mg/kg orally once a day from day 4; vs vehicle group; FIG. 8", "experimental": "as §4, with “control.” for “control. The impact on diabetes was evaluated by checking changes in body weight and blood glucose levels once a week after diabetes induction and checking final glycated hemoglobin levels after MCAO. To evaluate brain injury, the volume of cerebral infarction was determined using an animal MRI system.”\nDay 1 after MCAO, the expression levels of MGH1 in the brain tissues from the diabetic groups were analyzed by immunohistochemical staining and Western blot analysis."}, "[9]": {"settings": "HG, 3 days after MCAO, vs HG-vehicle, cresyl violet"}, "[10]": {"settings": "NG, 3 days after MCAO, vs NG-vehicle"}},
  "data": [
    {"molecule": "O=C(c1ccc(Cl)cc1)N(Cc1ccccc1)C1CCCCC1", "note": "[FPS-ZM1]", "values": [
      {"measurement": "cross-sectional area of injury", "setting": "[1]; [9]", "value": "significantly decreased"},
      {"measurement": "volume of actual injury", "setting": "[1]; [9]", "value": "more significant in the HG-FPS-ZM1 group than in the HG-vehicle group"},
      {"measurement": "mNSS score", "setting": "[1]; HG, vs the other MCAO groups, FIG. 1C", "value": "significantly lower than those in the other groups"},
      {"measurement": "body weight change after MCAO", "setting": "[1]; hyperglycemic group (HG), vs initial body weight before MCAO, FIG. 1B", "value": "no reduction in body weight"},
      {"measurement": "cross-sectional area of injury", "setting": "[2]; [10]", "value": "difficult through the area photographs to confirm the degree of reduction"},
      {"measurement": "overall injury volume", "setting": "[2]; [10]", "value": "decreased slightly in the NG-FPS-ZM1 group, but this decrease was not significant"},
      {"measurement": "body weight change after MCAO", "setting": "[2]; normoglycemic group (NG), vs initial body weight before MCAO, FIG. 1B", "value": "decreased compared to the initial body weight"},
      {"measurement": "MGH1 protein expression level in brain tissue (Western blot)", "setting": "[3]; between all groups, FIG. 3", "value": "no significant difference"},
      {"measurement": "AGE expression level in brain tissue (Western blot)", "setting": "[3]; vs HG-vehicle", "value": "significantly lower"},
      {"measurement": "GFAP expression level in brain tissue (Western blot)", "setting": "[3]; vs HG-vehicle", "value": "significantly lower"},
      {"measurement": "MGH1 protein expression level in brain tissue (Western blot)", "setting": "[4]; between all groups, FIG. 3", "value": "no significant difference"},
      {"measurement": "AGE expression level in brain tissue (Western blot)", "setting": "[4]; vs NG-vehicle", "value": "no significant difference"},
      {"measurement": "RAGE expression level in brain tissue (Western blot)", "setting": "[4]; vs NG-vehicle", "value": "no significant difference"},
      {"measurement": "activated astrocytes (GFAP staining)", "setting": "[5]", "value": "less observed"},
      {"measurement": "intracellular AGE staining", "setting": "[5]", "value": "less observed"},
      {"measurement": "intracellular MGH1 staining", "setting": "[5]", "value": "less observed"},
      {"measurement": "neuronal cell death / number of live cells in cerebral cortex (cresyl violet staining)", "setting": "[5]", "value": "the number of live cells was larger"},
      {"measurement": "degree of neuronal cell death in cerebral cortex (cresyl violet staining)", "setting": "[6]", "value": "higher"},
      {"measurement": "expression level of MMP-9 in brain tissue (real-time PCR)", "setting": "[7]; HG, 30 min MCAO, vs HG-vehicle", "value": "significantly decreased in the HG-FPS-ZM1 group to a level similar to that in the sham group"},
      {"measurement": "expression levels of most vascular-related factors in brain tissue (real-time PCR)", "setting": "[7]; HG-FPS-ZM1 group compared to NG-FPS-ZM1 group", "value": "increased in the HG-FPS-ZM1 group compared to the NG-FPS-ZM1 group, but there was no significant difference between the groups"}
    ]},
    {"molecule": "N=C(N)NN", "note": "[AG, aminoguanidine]", "values": [
      {"measurement": "brain injury (volume of cerebral infarction, animal MRI)", "setting": "[8]; 30 min MCAO on day 34, 100 mg/kg orally once a day from day 4, day 1 after MCAO", "value": "no significant difference"},
      {"measurement": "glycated hemoglobin level", "setting": "[8]; 100 mg/kg orally once a day from day 4, after MCAO", "value": "no significant difference"},
      {"measurement": "blood glucose level", "setting": "[8]; 100 mg/kg orally once a day from day 4", "value": "no significant difference"},
      {"measurement": "change in body weight", "setting": "[8]; 100 mg/kg orally once a day from day 4 after diabetes induction", "value": "not significantly different"},
      {"measurement": "expression level of MGH1 in brain tissue (immunohistochemical staining and Western blot)", "setting": "MGH1", "value": "decreased"}
    ]}
  ]
}
